# Where two headings read alike, the source gives them in different places.
# Legend:
# HL-60(TB) = assay: NCI-60 in vitro tumor cell screen, HL-60(TB); type: cell-based; settings: Homo sapiens, Leukemia
# Method: (§1) All the synthesized thiazoles 1a–l, 2a–j, 3a–f and 4a–f were evaluated by the National Cancer Institute (Bethesda MD) for cytotoxicity against the NCI-60 cell line panel using standard protocols. Initially, all derivatives were tested at a single dose (10^−5 M) on the full panel of approximately 60 human tumor cell lines derived from 9 human cancer cell types, that have been grouped in disease sub-panels including leukemia, non-small-cell lung, colon, central nervous system (CNS), melanoma, ovarian, renal, prostate and breast cancers (data not shown). Compounds 1k and 4c were further selected for full evaluation at five concentration levels (10^−4–10^−8 M).
# (§2) The antitumor activity of compounds 1k and 4c was given by three parameters for each cell line: GI50 (GI50 is the molar concentration of the compound that inhibits 50% net cell growth), TGI (TGI is the molar concentration of the compound leading to total inhibition of net cell growth), and LC50 (LC50 is the molar concentration of the compound that induces 50% net cell death). The average values of mean graph midpoint (MG_MID) were calculated for each of these parameters.
# MOLT-4 = assay: NCI-60 in vitro tumor cell screen, MOLT-4; type: cell-based; settings: Homo sapiens; MOLT-4, Leukemia
# Method: as §1, §2
# RPMI-8226 = assay: NCI-60 in vitro tumor cell screen, RPMI-8226; type: cell-based; settings: Homo sapiens; RPMI-8226, Leukemia
# Method: as §1, §2
# A549/ATCC = assay: NCI-60 in vitro tumor cell screen, A549/ATCC; type: cell-based; settings: Homo sapiens, Non-Small Cell Lung Cancer
# Method: as §1, §2
# HOP-92 = assay: NCI-60 in vitro tumor cell screen, HOP-92; type: cell-based; settings: Homo sapiens; HOP-92, Non-Small Cell Lung Cancer
# Method: as §1, §2
# NCI-H322M = assay: NCI-60 in vitro tumor cell screen, NCI-H322M; type: cell-based; settings: Homo sapiens, Non-Small Cell Lung Cancer
# Method: as §1, §2
# KM12 = assay: NCI-60 in vitro tumor cell screen, KM12; type: cell-based; settings: Homo sapiens; KM12, Colon Cancer
# Method: as §1, §2
# SW-620 = assay: NCI-60 in vitro tumor cell screen, SW-620; type: cell-based; settings: Homo sapiens; SW-620, Colon Cancer
# Method: as §1, §2
# SF-295 = assay: NCI-60 in vitro tumor cell screen, SF-295; type: cell-based; settings: Homo sapiens; SF-295, CNS Cancer
# Method: as §1, §2
# SNB-19 = assay: NCI-60 in vitro tumor cell screen, SNB-19; type: cell-based; settings: Homo sapiens; SNB-19, CNS Cancer
# Method: as §1, §2
# SNB-75 = assay: NCI-60 in vitro tumor cell screen, SNB-75; type: cell-based; settings: Homo sapiens; SNB-75, CNS Cancer
# Method: as §1, §2
# U251 = assay: NCI-60 in vitro tumor cell screen, U251; type: cell-based; settings: Homo sapiens, U-251; U251, CNS Cancer
# Method: as §1, §2
# MDA-MB-435 = assay: NCI-60 in vitro tumor cell screen, MDA-MB-435; type: cell-based; settings: Homo sapiens; MDA-MB-435, Melanoma
# Method: as §1, §2
# SK-MEL-2 = assay: NCI-60 in vitro tumor cell screen, SK-MEL-2; type: cell-based; settings: Homo sapiens; SK-MEL-2, Melanoma
# Method: as §1, §2
# IGROV1 = assay: NCI-60 in vitro tumor cell screen, IGROV1; type: cell-based; settings: Homo sapiens, IGROV-1; IGROV1, Ovarian Cancer
# Method: as §1, §2
# OVCAR-3 = assay: NCI-60 in vitro tumor cell screen, OVCAR-3; type: cell-based; settings: Homo sapiens; OVCAR-3, Ovarian Cancer
# Method: as §1, §2
# NCI/ADR-RES = assay: NCI-60 in vitro tumor cell screen, NCI/ADR-RES; type: cell-based; settings: Homo sapiens, Ovarian Cancer
# Method: as §1, §2
# A498 = assay: NCI-60 in vitro tumor cell screen, A498; type: cell-based; settings: Homo sapiens; A498, Renal Cancer
# Method: as §1, §2
# TK-10 = assay: NCI-60 in vitro tumor cell screen, TK-10; type: cell-based; settings: Homo sapiens; TK-10, Renal Cancer
# Method: as §1, §2
# PC-3 = assay: NCI-60 in vitro tumor cell screen, PC-3; type: cell-based; settings: Homo sapiens; PC-3, Prostate Cancer
# Method: as §1, §2
# MCF7 = assay: NCI-60 in vitro tumor cell screen, MCF7; type: cell-based; settings: Homo sapiens; MCF7, Breast Cancer
# Method: as §1, §2
# MDA-MB-231/ATCC = assay: NCI-60 in vitro tumor cell screen, MDA-MB-231/ATCC; type: cell-based; settings: Homo sapiens, Breast Cancer
# Method: as §1, §2
# HS 578T = assay: NCI-60 in vitro tumor cell screen, HS 578T; type: cell-based; settings: Homo sapiens, Breast Cancer
# Method: as §1, §2
# BT-549 = assay: NCI-60 in vitro tumor cell screen, BT-549; type: cell-based; settings: Homo sapiens; BT-549, Breast Cancer
# Method: as §1, §2
# T-47D = assay: NCI-60 in vitro tumor cell screen, T-47D; type: cell-based; settings: Homo sapiens, T47D, Breast Cancer
# Method: as §1, §2
# NCI-60 cell line panel = assay: NCI-60 cell line panel, summary over the full panel or subpanel; type: cell-based, human; settings: for GI50: Homo sapiens
# Method: as §1, §2
# HCT-116 cells [1] = assay: Phosphatidylserine exposure, Annexin V-FITC/PI flow cytometry; type: cell-based, human; settings: 24 h
# Method: The apoptosis-induced PS externalization to the cell surface was measured by flow cytometry by double staining with Annexin V-Fluorescein isothiocyanate (Annexin V-FITC)/propidium iodide (PI). Annexin V binding to phosphatidylserine is used to identify the earliest stage of apoptosis. […] After 24 h treatment, HCT-116 cells were harvested by trypsinization and adjusted at 1.0 × 10^6 cells/mL with combining buffer according to the manufacturer instructions (eBioscience, San Diego, CA, USA). One hundred μL of cell suspensions were added to a new tube, and incubated with Annexin V-FITC and PI solution at room temperature in the dark for 15 min. Then samples of at least 1.0 × 10^4 cells were subjected to FACS analysis using appropriate 2-bidimensional gating method.
# HCT-116 cells [2] = assay: Mitochondrial transmembrane potential (DiOC6 flow cytofluorometry); type: cell-based, human; settings: 24 h
# Method: Changes of mitochondrial transmembrane potential (Δψm) were assessed by flow cytofluorometry, using the cationic lipophilic dye 3,3′-dihexyloxacarbocyanine iodide(3) (DiOC6) (Molecular Probes, Inc., Life Technologies Italia, Monza, Italy) which accumulates in the mitochondrial matrix. Changes in mitochondrial membrane potential are indicated by a reduction in the DiOC6-induced fluorescence intensity. After 24 h treatment, HCT116 cells were incubated with DiOC6 at a 40 nmol/L final concentration, for 15 min at 37 °C. After centrifugation, cells were washed with PBS and suspended in 500 μL PBS. Fluorescent intensities were analysed in at least 1 × 10^4 cells for each sample.
# [3] = mean over the NCI full panel, read-out: GI50 mean value
# [4] = range over the NCI full panel, read-out: GI50 values against most of the human cell lines (range)
# [5] = concentration GI30, control 3.9%
# [6] = concentration GI70, control 3.9%
SMILES,GI50 (HL-60(TB)) [µM],GI50 (MOLT-4) [µM],GI50 (RPMI-8226) [µM],GI50 (A549/ATCC) [µM],GI50 (HOP-92) [µM],GI50 (NCI-H322M) [µM],GI50 (KM12) [µM],GI50 (SW-620) [µM],GI50 (SF-295) [µM],GI50 (SNB-19) [µM],GI50 (SNB-75) [µM],GI50 (U251) [µM],GI50 (MDA-MB-435) [µM],GI50 (SK-MEL-2) [µM],GI50 (IGROV1) [µM],GI50 (OVCAR-3) [µM],GI50 (NCI/ADR-RES) [µM],GI50 (A498) [µM],GI50 (TK-10) [µM],GI50 (PC-3) [µM],also measured
"Cn1cc(-c2csc(-c3c[nH]c4ncccc34)n2)c2cc(Br)cnc21 [Compound 1k, 5-Bromo-1-methyl-3-[2-(1H-pyrrolo[2,3-b]pyridin-3-yl)-1,3-thiazol-4-yl]-1H-pyrrolo[2,3-b]pyridine]",> 100,> 100,> 100,2.59,5.03,> 100,5.7,4.46,3.01,6.74,2.18,2.7,3.17,19.8,2.21,2.91,3.88,10.9,3.77,4.35,"GI50 (MCF7): 6.77 µM; GI50 (MDA-MB-231/ATCC): 3.02 µM; GI50 (HS 578T): 2.43 µM; GI50 (BT-549): 20.5 µM; GI50 (T-47D): 1.8 µM; GI50 (NCI-60 cell line panel; [3]): 5.26 µM; GI50 (NCI-60 cell line panel; [4]): 0.81 to 27.7 µM; percentage of sensitive cell lines out of the total number of cell lines investigated (NCI-60 cell line panel; NCI full panel): 89%; apoptosis (Annexin V-FITC/PI staining) (HCT-116 cells [1]): percentage of cells in late apoptosis increased; mitochondrial transmembrane potential (Δψm) loss, AQ (HCT-116 cells [2]; [5]): 26.0%; mitochondrial transmembrane potential (Δψm) loss, AQ (HCT-116 cells [2]; [6]): 35.3%"
"Clc1nccc2c(-c3csc(-c4c[nH]c5ccc(Br)cc45)n3)c[nH]c12 [Compound 4c, 3-[2-(5-Bromo-1H-indol-3-yl)-1,3-thiazol-4-yl]-7-chloro-1H-pyrrolo[2,3-c]pyridine]",2.64,3.02,4.03,3.83,2.43,3.54,2.15,1.92,2.48,3.25,2.37,2.05,3.43,4.09,2.51,3.45,2.71,1.56,4.16,3.86,"GI50 (MCF7): 2.2 µM; GI50 (MDA-MB-231/ATCC): 1.68 µM; GI50 (HS 578T): 3.7 µM; GI50 (BT-549): 4.7 µM; GI50 (T-47D): 3.12 µM; GI50 (NCI-60 cell line panel; all renal cancer subpanel cell lines, read-out: GI50 range, renal cancer subpanel): 0.93 to 4.16 µM; GI50 (NCI-60 cell line panel; [3]): 2.59 µM; GI50 (NCI-60 cell line panel; [4]): 0.93 to 4.7 µM; percentage of sensitive cell lines out of the total number of cell lines investigated (NCI-60 cell line panel; NCI full panel): 100%; percentage of cell lines with positive LC50 values (NCI-60 cell line panel; NCI full panel, data not shown): 81%; percentage of cell lines with positive TGI values (NCI-60 cell line panel; NCI full panel, data not shown): 98%; apoptosis (Annexin V-FITC/PI staining) (HCT-116 cells [1]): evident only at high concentrations (GI70); mitochondrial transmembrane potential (Δψm) loss, AQ (HCT-116 cells [2]; [5]): 3.8%; mitochondrial transmembrane potential (Δψm) loss, AQ (HCT-116 cells [2]; [6]): 14.7%"

# Reference: publication PMC4306947, “Synthesis and Antiproliferative Activity of Thiazolyl-bis-pyrrolo[2,3-b]pyridines and Indolyl-thiazolyl-pyrrolo[2,3-c]pyridines, Nortopsentin Analogues” (Marine Drugs, 2015)
